Values of other authors, collected in patent publication US9222055B2, “High intensity fragrances” (TAKASAGO INTERNATIONAL CORPORATION, priority 2009, dated 2015).
Where two headings read alike, the source gives them in different places.

How the values were obtained:
[1] = Table 1, measured value where available
[2] = for Readily biodegradable: Table 1
[3] = evidence from prior art
[4] = Table 19, ingredients of Comparative Fragrance K
[5] = Table 18, ingredients of Comparative Fragrance J

CC1=CCC(O)(C(C)C)CC1 (stereo not shown) [1-terpinen-4-ol]
LogP [1]: 3.26 | Readily biodegradable [2]: No

CC(C)CC1CC(C)(O)CCO1 (stereo not shown) [2-isobutyl-4-methyltetrahydro-2H-pyran-4-ol]
Bio-Degradable [2, 4]: No

C=CCOC(=O)CCCCC [ALLYL HEXANOATE, allyl hexanoate]
Readily biodegradable [2]: Yes

COc1ccc(C=O)cc1 [ANISIC ALDEHYDE, anisic aldehyde]
Readily biodegradable [2]: Yes

CC(=O)/C=C/C1C(C)=CCCC1(C)C (stereo not drawn) [Alpha ionone]
Bio-Degradable [2, 4]: No

CCCCC/C(C=O)=C/c1ccccc1 [Amyl cinnamic aldehyde]
allergen classification [3]: strong allergens

CC(=O)OCc1ccccc1 [BENZYL ACETATE, benzyl acetate]
biodegradability classification ([2]; OECD 301B or OECD 301F, Test Plan for Benzyl Derivatives): readily biodegradable | Readily biodegradable [2]: Yes | Bio-Degradable [2, 4]: Yes

OCc1ccccc1 [BENZYL ALCOHOL, benzyl alcohol]
Readily biodegradable [2]: Yes

CCCCOC(C)=O [BUTYL ACETATE, butyl acetate]
LogP [1]: 1.78 | Readily biodegradable [2]: Yes

O=C(OCc1ccccc1)c1ccccc1O [Benzyl Salicylate]
Bio-Degradable [2, 5]: No

OC/C=C/c1ccccc1 [CINNAMIC ALCOHOL, cinnamic alcohol]
LogP [1]: 1.95 | Readily biodegradable [2]: Yes | allergen classification [3]: strong allergens

O=C/C=C/c1ccccc1 [CINNAMIC ALDEHYDE, cinnamic aldehyde]
Readily biodegradable [2]: Yes | allergen classification [3]: strong allergens

CC/C=C\CCOC(C)=O [CIS-3-HEXENYL ACETATE, cis-3-hexenyl acetate]
LogP [1]: 2.34 | Readily biodegradable [2]: Yes

CC/C=C\CCOC(=O)CC [CIS-3-HEXENYL PROPIONATE, cis-3-hexenyl propionate]
Readily biodegradable [2]: Yes

CC(C)=CCCC(C)=CC=O [CITRAL, citral]
biodegradability classification ([2]; OECD 301B, The Terpene Consortium Robust Summary): readily biodegradable | Readily biodegradable [2]: Yes | allergen classification [3]: strong allergens

CC(C)=CCCC(C)CCO (stereo not shown) [CITRONELLOL, citronellol]
biodegradability classification ([2]; OECD 301F, The Terpene Consortium Robust Summary): readily biodegradable | Readily biodegradable [2]: Yes

COc1ccc(C)cc1 [Cresyl methyl ether]
Bio-Degradable [2, 4]: Yes

CCCCCCC1CCC(=O)O1 (stereo not shown) [DECALACTONE GAMMA, decalactone gamma]
LogP [1]: 2.72 | Readily biodegradable [2]: Yes

CCCc1ccc(O)c(OC)c1 [Dihydroeugenol]
Bio-Degradable [2, 4]: No

CCCC(=O)OC(C)(C)Cc1ccccc1 [Dimethyl benzyl carbonyl butyrate]
Bio-Degradable [2, 5]: No

CCCCCCCCCCCC=O [Dodecanal]
Bio-Degradable [2, 4]: Yes

CCCC(=O)OCC [ETHYL BUTYRATE, ethyl butyrate]
LogP [1]: 1.73 | Readily biodegradable [2]: Yes

CCCCCC(=O)OCC [ETHYL CAPROATE, ethyl caproate]
Readily biodegradable [2]: Yes

CCCCCCCC(=O)OCC [ETHYL CAPRYLATE, ethyl caprylate]
Readily biodegradable [2]: Yes

CCCCCCC(=O)OCC [ETHYL HEPTANOTE, ethyl heptanoate]
Readily biodegradable [2]: Yes

CCOC(=O)CC [ETHYL PROPIONATE, ethyl propionate]
LogP [1]: 1.21 | Readily biodegradable [2]: Yes

CCOC(=O)CC(C)=O [Ethyl acetoaceteate]
Bio-Degradable [2, 4]: Yes

CCOC(=O)C12CCCC1C1CCC2C1 (stereo not shown) [Ethyl tricyclodecan-2-carboxylate]
Bio-Degradable [2, 5]: No

O=C1CCCCCCCCCCCC(=O)OCCO1 [Ethylene brassylate]
Bio-Degradable [2, 5]: Yes | Bio-Degradable [2, 4]: Yes

CC(=O)/C(C)=C/C1C(C)=CCCC1(C)C (stereo not shown) [Gamma methyl ionone]
Bio-Degradable [2, 4]: No

O=Cc1ccc2c(c1)OCO2 [HELIOTROPINE, heliotropine]
LogP [1]: 1.05

CCCCCCOC(C)=O [HEXYL ACETATE, hexyl acetate]
Readily biodegradable [2]: Yes

CCCCCCC(C=O)=Cc1ccccc1 [Hexyl Cinnamic Aldehyde]
Bio-Degradable [2, 5]: Yes

CCCCCCOC(=O)c1ccccc1O [Hexyl salicylate]
Bio-Degradable [2, 4]: Yes

CC(=O)OCCC(C)C [ISOAMYL ACETATE, isoamyl acetate]
LogP [1]: 2.25 | Readily biodegradable [2]: Yes

CC(C)[C@@H]1CC[C@@H](C)C[C@H]1O [L-MENTHOL, L-menthol]
Readily biodegradable [2]: No

C=C(C)[C@H]1CC=C(C)CC1 [LIMONENE, limonene]
LogP [1]: 4.57 | Readily biodegradable [2]: No

C=CC(C)(O)CCC=C(C)C (stereo not shown) [LINALOOL, linalool]
Readily biodegradable [2]: No | Bio-Degradable [2, 5]: No | Bio-Degradable [2, 4]: No

C=CC(C)(CCC=C(C)C)OC(C)=O (stereo not shown) [Linalyl acetate]
Bio-Degradable [2, 4]: No

COC(=O)c1ccccc1N [METHYL ANTHRANILATE, methyl anthranilate]
Readily biodegradable [2]: Med

COC(=O)c1ccccc1O [METHYL SALICYLATE, methyl salicylate]
Readily biodegradable [2]: Yes

CCCCCC1C(=O)CCC1CC(=O)OC (stereo not shown) [Methyldihydrojasmonate]
Bio-Degradable [2, 4]: Yes

CCCCC1CCC(=O)O1 (stereo not shown) [OCTALACTONE, GAMMA, octalactone gamma]
Readily biodegradable [2]: Yes

CC(=O)OCCc1ccccc1 [PHENYLETHYL ACETATE, 2-phenylethyl acetate]
LogP [1]: 2.30 | Readily biodegradable [2]: Yes

OCCc1ccccc1 [PHENYLETHYL ALCOHOL, 2-phenylethylalcohol]
Readily biodegradable [2]: Yes | Bio-Degradable [2, 4]: Yes

CC(C=O)Cc1ccc(C(C)(C)C)cc1 (stereo not drawn) [Para tert-butyl-alpha Methyl hydrocinnamic Aldehyde]
Bio-Degradable [2, 5]: No | allergen classification [3]: strong allergens

CC1=CCC(C(C)(C)O)CC1 (stereo not drawn) [TERPINEOL, ALPHA, alpha-terpineol]
LogP [1]: 2.98 | Readily biodegradable [2]: No

CCC/C=C/C=O [TRANS-2-HEXENAL, trans-2-hexenal]
Readily biodegradable [2]: Yes

CCCCCC1COCCC1OC(C)=O (stereo not shown) [Tetrahydro-3-penthyl-2H-pyran-4-yl acetate]
Bio-Degradable [2, 5]: Yes

C=CCCCCCCCCC=O [Undecelenic aldehyde]
Bio-Degradable [2, 4]: Yes

COc1cc(C=O)ccc1O [VANILLIN, vanillin]
Readily biodegradable [2]: Yes | Bio-Degradable [2, 4]: Yes

Cc1occc(=O)c1O [VELTOL ™, 3-hydroxy-2-methyl-4-pyrone]
Readily biodegradable [2]: Yes

CC(C)=CCCC(C)=CCCC(C)=CCO [farnesol]
allergen classification [3]: strong allergens

CC=Cc1ccc(O)c(OC)c1 [isoeugenol]
allergen classification [3]: strong allergens

CCCCCOC(C)=O [n-AMYL ACETATE, n-amyl acetate]
LogP [1]: 2.30 | Readily biodegradable [2]: Yes

CCCCCOC(=O)CC [n-AMYL PROPIONATE, n-amyl propionate]
LogP [1]: 2.66 | Readily biodegradable [2]: Yes
